Results on 19 molecules are retold here after patent US5780245A, “Polypeptides having a serotonin receptor activity, nucleic acids coding for these polypeptides and uses” (priority 1992, dated 1998).

Where two headings read alike, the source gives them in different places. Some results are limits rather than exact numbers.

One assay deals with whole (N) 5HT2C receptor (Mus musculus, UniProt Q02152). In words: biochemical. Type of assay: binding. Particulars: for order of efficacy of displacement / competition: displacement of [^125 I]DOI.
A further assay deals with T1, 5-HT1C (Homo sapiens, UniProt P28335).
T1 sequence (P28335 33-458): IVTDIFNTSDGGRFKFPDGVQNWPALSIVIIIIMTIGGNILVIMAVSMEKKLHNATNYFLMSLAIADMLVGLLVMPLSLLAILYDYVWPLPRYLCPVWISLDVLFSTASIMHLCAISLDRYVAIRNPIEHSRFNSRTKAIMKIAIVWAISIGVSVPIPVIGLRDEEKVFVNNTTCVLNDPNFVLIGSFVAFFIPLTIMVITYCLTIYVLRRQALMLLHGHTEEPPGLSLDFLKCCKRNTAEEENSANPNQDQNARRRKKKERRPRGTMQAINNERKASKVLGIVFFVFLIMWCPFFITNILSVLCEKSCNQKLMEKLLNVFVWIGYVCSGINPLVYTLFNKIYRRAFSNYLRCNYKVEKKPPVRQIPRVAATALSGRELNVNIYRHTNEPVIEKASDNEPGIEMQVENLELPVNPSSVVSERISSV
Kind of assay: biochemical. It is filed as binding.

The subject of assay [1] is membranes of the control cells (transfected with plasmid pSG5). Kind of assay: [^125 I]DOI binding to membranes of control cells (transfected with plasmid pSG5). The method, then:
(§1) The [^125 I]DOI (dimethoxyphenyl isopropylamine) was first used alone, in order to detect the expression of the gene encoding the receptors of the invention in the membranes of the recombinant cells. For this purpose, 100 μl of membrane suspension ([…]) of proteins) were incubated for 30 minutes at 30° C. in the presence of the radioactive ligand (50 μl) and 50 μl of 50 mM Tris-HCl buffer (pH 7.4), 150 mM NaCl, 10 mm MgCl2, final volume: 200 μl. The reaction is then stopped by addition of an isoosmotic ice-cold solution, then by filtration on Whatman GF/B filters, followed by 4 rinses in 5 ml of the above ice-cold buffer. The filters are then dried and the radioactivity is measured by counting (γ counter). Non-specific binding, determined in the presence of 10 μM of cold DOI, represented about 30% of the total binding.
These cells therefore indeed express a functional serotonin receptor.

The next assay has as its target T2, 5HT2C receptor (Mus musculus, UniProt Q02152).
T2 construct: expressed in transfected cells; host or cells: Cos-7
In words: saturation binding of [^125 I]DOI to membranes of Cos-7 cells expressing the 5HT2C receptor. How it is done:
FIG. 1 Scatchard curve of the results of experiments for the binding, at saturation, of [^125 I]DOI to the membranes of Cos-7 cells expressing the 5HT2C receptor.
The cDNA fragment isolated in Example 1 was inserted into an eukaryotic expression vector, which was used to transfect Cos-7 cells. The membranes of the transfected cells obtained were then prepared and tested for their capacity to bind certain labelled serotoninergic ligands.
The cDNA encoding the 5HT2C receptor was isolated in the form of a 1372 pb XbaI-EcoRI fragment and then inserted at the corresponding sites of the vector p513. The vector p513 is derived from the vector pSG5 [Green et al., Nucl. Acids Res. 16 (1988) 369] by addition of a multiple cloning site. The recombinant vector thus obtained, designated p513NP75, was then used (10 μg per 10 cm dish) to transfect the Cos-7 cells in the presence of calcium phosphate.
48 Hours after transfection, the recombinant cells are harvested and the membranes are prepared according to the technique described by Amlaiky and Caron [J. Biol. Chem. 260 (1985) 1983].
Saturation binding and competition experiments were then carried out on these membranes in the presence of [^125 I]DOI (2200 Ci/mmol; New England Nuclear) and various test compounds.
as §1

For assay [2], the target named is T3, truncated (T) 5HT2C receptor (Mus musculus, UniProt Q02152, S167T).
T3 sequence (Q02152 with tags, fused parts or gaps S167T): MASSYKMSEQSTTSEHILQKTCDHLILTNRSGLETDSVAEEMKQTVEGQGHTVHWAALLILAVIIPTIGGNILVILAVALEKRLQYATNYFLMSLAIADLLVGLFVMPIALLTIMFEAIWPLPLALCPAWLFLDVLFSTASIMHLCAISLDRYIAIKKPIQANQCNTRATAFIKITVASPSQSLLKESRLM
Kind of assay: biochemical. Type of assay: binding.

The target in a further assay is 5-HT2 (Homo sapiens, UniProt P28223). In words: binding to 5-HT2 (Table 1 comparison).
The test system of a further assay is coronary arteries. Particulars: human coronary atherosclerosis; Golino et al.; cited from earlier work.
The subject of assay [3] is translation of the intracellular signal. In words: translation of the intracellular signal by the truncated receptor. It is filed as cell-based, mouse. The following applies: truncated protein. The source says:
The physiological role of this form of the receptor remains unknown, but it seems likely that it serves to protect certain sensitive targets, such as the vascular endothelium, from harmful stimulations by locally "diluting" the effect of the ligand, in this case serotonin.

Setting [4] is: [^125 I]DOI displacement, COS membranes, truncated receptor, at least three experiments in triplicate, read-out: pKD, binding to the COS T (converted).
[5] abbreviates: [^125 I]DOI displacement, Cos-7 membranes, whole receptor, at least three experiments in triplicate, read-out: pKD, binding to the COS N cells (converted).
The mark [6] stands for this setting: Table 1 comparison column, source of values not stated.

Chain of 5-HT2 (P28223 whole entry, species assumed): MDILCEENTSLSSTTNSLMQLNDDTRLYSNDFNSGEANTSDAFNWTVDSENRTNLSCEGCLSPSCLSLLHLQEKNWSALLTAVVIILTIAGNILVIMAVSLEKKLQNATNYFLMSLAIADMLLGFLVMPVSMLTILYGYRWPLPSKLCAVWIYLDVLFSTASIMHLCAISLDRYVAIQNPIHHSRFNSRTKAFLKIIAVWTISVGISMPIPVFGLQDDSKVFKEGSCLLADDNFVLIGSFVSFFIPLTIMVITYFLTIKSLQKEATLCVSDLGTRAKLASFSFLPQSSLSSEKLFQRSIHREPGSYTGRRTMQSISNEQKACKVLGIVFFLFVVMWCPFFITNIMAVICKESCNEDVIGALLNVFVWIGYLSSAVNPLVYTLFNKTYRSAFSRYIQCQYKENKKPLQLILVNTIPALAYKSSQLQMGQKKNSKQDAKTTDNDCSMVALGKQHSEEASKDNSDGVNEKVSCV
Chain of whole (N) 5HT2C receptor (Q02152 whole entry S167T/A227V/S449C): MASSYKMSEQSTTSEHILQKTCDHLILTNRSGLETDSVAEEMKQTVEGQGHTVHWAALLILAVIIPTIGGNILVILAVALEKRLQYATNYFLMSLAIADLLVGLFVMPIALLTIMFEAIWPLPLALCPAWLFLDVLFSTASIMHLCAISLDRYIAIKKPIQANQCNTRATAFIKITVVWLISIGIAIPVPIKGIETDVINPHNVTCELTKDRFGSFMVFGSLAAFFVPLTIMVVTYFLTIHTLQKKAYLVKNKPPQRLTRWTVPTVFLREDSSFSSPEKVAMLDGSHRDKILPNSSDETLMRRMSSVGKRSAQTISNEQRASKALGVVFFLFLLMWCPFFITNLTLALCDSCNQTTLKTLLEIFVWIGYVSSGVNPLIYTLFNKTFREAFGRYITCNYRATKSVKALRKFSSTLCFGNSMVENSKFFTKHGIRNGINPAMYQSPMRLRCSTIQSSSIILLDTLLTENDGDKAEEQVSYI
T2 sequence (Q02152 whole entry S167T/A227V/S449C): as above

`Cc1nc2sccn2c(=O)c1CCN1CCC(=C(c2ccc(F)cc2)c2ccc(F)cc2)CC1` [Ritanserin]: the “order of efficacy of displacement” value at whole (N) 5HT2C receptor (whole receptor) is “ritanserin>N-acetyl 5-HT>methysergide>setoperone=cyproheptadine>spiperone>ketanserin>tryptamine>5-HT >8-OH-DPAT”. The molecule also had a Kd at 5-HT1C of 0.00251 µM.
As for `COc1cc(CC(C)N)c(OC)cc1I` (stereo not shown) [DOI, dimethoxyphenyl isopropylamine], the “binding to membranes of the control cells” value in assay [1] was “not to the membranes of the control cells”. In addition, on 5HT2C receptor ([^125 I]DOI), the “specific binding to the membranes of the transfected cells” value was “binds specifically to the membranes of the transfected cells”. Besides, the Kd on 5HT2C receptor ([^125 I]DOI saturation binding, 30 minutes at 30° C., pH 7.4, read-out: apparent KD) is 0.0258 ± 0.00054 µM. The “affinity for the transfected cells” value on 5HT2C receptor ([^125 I]DOI saturation binding, FIG. 1) was “high and the binding is saturable”. The “non-specific binding (of the total binding)” value on 5HT2C receptor (in the presence of 10 μM of cold DOI) is “about 30%”.
As for `CC(=O)NCCc1c[nH]c2ccc(O)cc12` [N-Acetyl-5-HT], the Kd is 0.00708 µM at whole (N) 5HT2C receptor, 0.2 µM in assay [2] (setting [4]), 0.794 µM on 5-HT1C and 3.16 µM on 5-HT2. The “order of efficacy of displacement” value on whole (N) 5HT2C receptor (whole receptor) was “ritanserin>N-acetyl 5-HT>methysergide>setoperone=cyproheptadine>spiperone>ketanserin>tryptamine>5-HT >8-OH-DPAT”.
In the case of `CCCN(CCC)C1CCc2cccc(O)c2C1` (stereo not shown) [8-OH-DPAT], the figures for the Kd (on whole (N) 5HT2C receptor; in assay [2] (setting [4]); at 5-HT2) were 6.46 µM, greater than 100 µM and 10 µM, respectively. Moreover, the “order of efficacy of displacement” value at whole (N) 5HT2C receptor (whole receptor) is “ritanserin>N-acetyl 5-HT>methysergide>setoperone=cyproheptadine>spiperone>ketanserin>tryptamine>5-HT >8-OH-DPAT”.
Consider `O=C(c1ccc(F)cc1)C1CCN(CCn2c(=O)[nH]c3ccccc3c2=O)CC1` [Ketanserin], for which the “increased sensitivity to serotonin of the contraction of the coronary arteries” value with coronary arteries is on record as “can be reduced by ketanserin”. For the same molecule, the Kd at whole (N) 5HT2C receptor (setting [5]) is 0.204 µM; in assay [2] it was greater than 100 µM. Besides, the “order of efficacy of displacement” value at whole (N) 5HT2C receptor (whole receptor) is listed as “ritanserin>N-acetyl 5-HT>methysergide>setoperone=cyproheptadine>spiperone>ketanserin>tryptamine>5-HT >8-OH-DPAT”.
Regarding `NCCc1c[nH]cn1` [Histamine], the Kd (at whole (N) 5HT2C receptor (setting [5]); in assay [2] (setting [4]); on 5-HT1C (setting [6]); on 5-HT2) was greater than 100 µM throughout.
For the molecule `CN1CCC(=C2c3ccccc3C=Cc3ccccc32)CC1` [Cyproheptadine], the Kd on 5-HT1C (setting [6]) was 0.0126 µM.
Take `O=C(CCCN1CCC2(CC1)C(=O)NCN2c1ccccc1)c1ccc(F)cc1` [Spiperone]: the Kd at whole (N) 5HT2C receptor (setting [5]) was 0.0501 µM; in assay [2] (setting [4]) it was greater than 100 µM; at 5-HT1C (setting [6]) it was 1.26 µM. At whole (N) 5HT2C receptor (whole receptor), the “order of efficacy of displacement” value is on record as “ritanserin>N-acetyl 5-HT>methysergide>setoperone=cyproheptadine>spiperone>ketanserin>tryptamine>5-HT >8-OH-DPAT”.
On to `CN1[C@@H]2CC[C@H]1C[C@@H](OC(=O)c1cc(Cl)cc(Cl)c1)C2` [MDL 72222], for which the Kd at whole (N) 5HT2C receptor (setting [5]) is 24 µM; in assay [2] (setting [4]) it was greater than 100 µM; at 5-HT1C (setting [6]), greater than 10 µM; on 5-HT2, 0.2 µM. Further, the “competition” value on whole (N) 5HT2C receptor (whole receptor) is “absence of competition”.
Consider `Cn1cc(CCN)c2cc(O)ccc21` [1-ME-5-HT], for which the Kd on whole (N) 5HT2C receptor is 2.51 µM; in assay [2] (setting [4]), 60.3 µM; at 5-HT1C, 0.00398 µM; at 5-HT2 (setting [6]), 0.501 µM.
Consider `CN1C2CCC1CC(OC(=O)c1c[nH]c3ccccc13)C2` (stereo not shown) [ICS 205-930], for which the “competition” value at whole (N) 5HT2C receptor (whole receptor) is given as “absence of competition”. Besides, the Kd in assay [2] (setting [4]) is greater than 100 µM; on 5-HT1C, 25.1 µM.
With `CN(C)CCCN1c2ccccc2Sc2ccc(Cl)cc21` [Chlorpromazine], the Kd (at whole (N) 5HT2C receptor (setting [5]); in assay [2] (setting [4])) was greater than 100 µM in each case.
`Cc1nc2n(c(=O)c1CCN1CCC(C(=O)c3ccc(F)cc3)CC1)CCS2` [Setoperone]: the Kd on whole (N) 5HT2C receptor (setting [5]) was 0.0245 µM; in assay [2] (setting [4]) it was greater than 100 µM; at 5-HT1C (setting [6]), 0.0501 µM; on 5-HT2 it was 0.00251 µM. Further, at whole (N) 5HT2C receptor (whole receptor), the “order of efficacy of displacement” value is recorded as “ritanserin>N-acetyl 5-HT>methysergide>setoperone=cyproheptadine>spiperone>ketanserin>tryptamine>5-HT >8-OH-DPAT”.
Regarding `CC[C@@H](CO)NC(=O)[C@@H]1C=C2c3cccc4c3c(cn4C)C[C@H]2N(C)C1` [Methysergide], the Kd on whole (N) 5HT2C receptor is 0.0126 µM; on 5-HT1C, 0.00251 µM. Further, the “order of efficacy of displacement” value on whole (N) 5HT2C receptor (whole receptor) is recorded as “ritanserin>N-acetyl 5-HT>methysergide>setoperone=cyproheptadine>spiperone>ketanserin>tryptamine>5-HT >8-OH-DPAT”.
For `Cc1[nH]c2ccc(O)cc2c1CCN` [2-Me-5-HT], the Kd on whole (N) 5HT2C receptor is 6.61 µM; in assay [2] (setting [4]), greater than 100 µM; at 5-HT1C, 1.58 µM; on 5-HT2 (setting [6]), 6.31 µM.
As to `COc1ccc2[nH]cc(CCN(C)C)c2c1` [NNdiMe-5-MeOT], the Kd was 7.41 µM at whole (N) 5HT2C receptor and 45.7 µM in assay [2] (setting [4]).
Take `c1ccc2nc(N3CCNCC3)ccc2c1` [Quipazine]: the Kd is 6.61 µM on whole (N) 5HT2C receptor (setting [5]), 14.1 µM in assay [2] (setting [4]), 0.2 µM at 5-HT1C and 0.631 µM at 5-HT2. At whole (N) 5HT2C receptor (whole receptor), the “competition” value is given as “absence of competition”.
Regarding `NCCc1c[nH]c2ccccc12` [Tryptamine], the Kd was 0.2 µM on whole (N) 5HT2C receptor, 14.5 µM in assay [2] (setting [4]) and 0.0631 µM on 5-HT1C. Also, the “order of efficacy of displacement” value at whole (N) 5HT2C receptor (whole receptor) is recorded as “ritanserin>N-acetyl 5-HT>methysergide>setoperone=cyproheptadine>spiperone>ketanserin>tryptamine>5-HT >8-OH-DPAT”.

B1: truncated protein: receptor having only the first three transmembrane domains, residues 1 to 177 SEQ ID No. 2 plus 14 C-terminal amino acids (protein)
chain: MASSYKMSEQSTTSEHILQKTCDHLILTNRSGLETDSVAEEMKQTVEGQGHTVHWAALLILAVIIPTIGGNILVILAVALEKRLQYATNYFLMSLAIADLLVGLFVMPIALLTIMFEAIWPLPLALCPAWLFLDVLFSTASIMHLCAISLDRYIAIKKPIQANQCNTRATAFIKITV
modifications: plus 14 C-terminal amino acids
Consider B1, for which the “translation of the intracellular signal” value in assay [3] was “completely abolished”.
